Calls of active or inactive are those of the source. The rule behind the calls is not given here.
Legend:
[1] = system: MOLM-13; assay: Induction of cell cycle arrest in human MOLM-13 cells assessed as G1 phase at 2 uM incubated for 12 hr by propidium iodide based flow cytometry analysis (Rvb= 51.29%); assay type: functional
[2] = biological target: Epidermal growth factor receptor (Homo sapiens, UniProt P00533); assay: Inhibition of recombinant human EGFR (696 to end residues) using poly(Glu, Tyr) 4:1 as substrate after 40 mins in presence of [gamma-33ATP] by radiometric scintillation counting analysis
[3] = system: MOLM-13; assay: Induction of apoptosis in human MOLM-13 cells assessed as live cells at 2 uM incubated for 12 hrs by annexin-V and propidium iodide staining based flow cytometry analysis (reference value: 91.49%); assay type: functional
[4] = Half life in Sprague Dawley rat at 10 mg/kg, ip measured after 24 hrs; assay type: ADME, organism-based; conditions: in vivo
[5] = Toxicity in NOD/SCID mouse xenografted with human MOLM-13 cells assessed as abnormal changes in lung at 5 to 10 mg/kg, ip daily for 2 weeks by hematoxylin-eosin staining based histological analysis; assay type: organism-based; conditions: in vivo, 336 h, dose 5-10 mg/kg
[6] = system: MOLM-13; assay: Antitumor activity against human MOLM-13 cells xenografted in NOD/SCID mouse assessed as tumor growth inhibition at 5 mg/kg, ip daily for 2 weeks; assay type: functional; conditions: MOLM-13, ip, 336 h, read-out: TGI
[7] = system: MOLM-13; assay: Induction of cell cycle arrest in human MOLM-13 cells assessed as G1 phase at 1 uM incubated for 12 hr by propidium iodide based flow cytometry analysis (Rvb= 51.29%); assay type: functional
[8] = AUC (0 to t) in Sprague Dawley rat at 10 mg/kg, ip measured after 24 hrs; assay type: ADME, organism-based; set-up: route intraperitoneal, time 24 hrs, dose 10 mg/kg; conditions: in vivo
[9] = system: K562; assay: Downregulation of cyclin-D1 levels in human K562 cells at 1 to 2 uM incubated for 24 hrs by western blot analysis; assay type: functional, cell-based; conditions: dose 1-2 µM
[10] = Tmax in Sprague Dawley rat at 10 mg/kg, po measured after 24 hrs; assay type: ADME, organism-based; conditions: in vivo
[11] = system: MOLM-13; assay: Induction of apoptosis in human MOLM-13 cells assessed as necrotic cells at 1 uM incubated for 12 hrs by annexin-V and propidium iodide staining based flow cytometry analysis (reference value: 0.06%); assay type: functional
[12] = biological target: Epidermal growth factor receptor (Homo sapiens, UniProt P00533, T790M); assay: Inhibition of recombinant human EGFR T790M mutant (696 to end residues) using GGMEDIYFEFMGG as substrate after 40 mins in presence of [gamma-33ATP] by radiometric scintillation counting analysis
[13] = biological target: T1, Receptor tyrosine-protein kinase erbB-2 (Homo sapiens, UniProt P04626); assay: Inhibition of wild-type human partial length ERBB2 (K646 to V1225 residues) expressed in mammalian expression system at 1 uM by Kinomescan method relative to control
[14] = AUC (0 to infinity) in Sprague Dawley rat at 10 mg/kg, ip measured after 24 hrs; assay type: ADME, organism-based; set-up: route intraperitoneal, dose 10 mg/kg, time 24 hrs; conditions: in vivo
[15] = AUC (0 to t) in Sprague Dawley rat at 2 mg/kg, iv measured after 24 hrs; assay type: ADME, organism-based; set-up: route intravenous, time 24 hrs, dose 2 mg/kg; conditions: in vivo
[16] = Drug concentration in Sprague Dawley rat at 2 mg/kg, iv measured after 24 hrs; assay type: ADME, organism-based; conditions: in vivo, read-out: Ct
[17] = system: MOLM-13; assay: Downregulation of cyclin-D1 levels in human MOLM-13 cells at 1 to 2 uM incubated for 12 hrs by western blot analysis; assay type: functional, cell-based; conditions: dose 1-2 µM
[18] = system: MOLM-13; assay: Induction of cell cycle arrest in human MOLM-13 cells assessed as sub-G1 phase at 1 uM incubated for 12 hr by propidium iodide based flow cytometry analysis (Rvb= 4.78%); assay type: functional
[19] = biological target: Serine/threonine-protein kinase PIM (Homo sapiens) (UniProt P11309+Q9P1W9+Q86V86); assay: Inhibition of PIM in human MOLM-13 cells assessed as reduction of BAD phosphorylation at 1 to 2 uM incubated for 12 hrs by western blot analysis; assay type: cell-based; conditions: dose 1-2 µM
[20] = system: MOLM-13; assay: Induction of cell cycle arrest in human MOLM-13 cells assessed as sub-G1 phase at 2 uM incubated for 12 hr by propidium iodide based flow cytometry analysis (Rvb= 4.78%); assay type: functional
[21] = system: K562; assay: Downregulation of mcl-1 levels in human K562 cells at 1 to 2 uM incubated for 24 hrs by western blot analysis; assay type: functional, cell-based; conditions: dose 1-2 µM
[22] = Metabolic stability in human liver microsomes assessed as half life preincubated for 10 mins followed by NADPH addition and further incubated upto 60 mins by LC-MS/MS analysis; assay type: ADME, Microsome; conditions: time <=70 min
[23] = AUC (0 to infinity) in Sprague Dawley rat at 2 mg/kg, iv measured after 24 hrs; assay type: ADME, organism-based; set-up: route intravenous, time 24 hrs, dose 2 mg/kg; conditions: in vivo
[24] = biological target: Serine/threonine-protein kinase pim-1 (Homo sapiens, UniProt P11309); assay: Inhibition of wild-type human partial length PIM1 (A15 to K313 residues) expressed in bacterial expression system at 1 uM by Kinomescan method relative to control
[25] = system: MOLM-13; assay: Downregulation of mcl-1 levels in human MOLM-13 cells at 1 to 2 uM incubated for 12 hrs by western blot analysis; assay type: functional, cell-based; conditions: dose 1-2 µM
[26] = system: MOLM-13; assay: Antitumor activity against human MOLM-13 cells xenografted in NOD/SCID mouse assessed as decrease in BAD phosphorylation at 10 mg/kg, ip daily for 2 weeks by western blot analysis; assay type: functional, organism-based
[27] = biological target: T1, Receptor tyrosine-protein kinase erbB-2; assay: Inhibition of ERBB2 (unknown origin) by mobility shift assay
[28] = biological target: T2, MAP kinase-interacting serine/threonine-protein kinase 2 (Homo sapiens, UniProt Q9HBH9); assay: Inhibition of wild type human partial length MKN2 (G63 to S388 residues) expressed in mammalian expression system by HTRF method
[29] = system: MOLM-13; assay: Antitumor activity against human MOLM-13 cells xenografted in NOD/SCID mouse assessed as tumor growth inhibition at 10 mg/kg, ip daily for 2 weeks; assay type: functional; conditions: MOLM-13, ip, 336 h, read-out: TGI
[30] = system: MOLM-13; assay: Induction of apoptosis in human MOLM-13 cells assessed as necrotic cells at 2 uM incubated for 12 hrs by annexin-V and propidium iodide staining based flow cytometry analysis (reference value: 0.06%); assay type: functional
[31] = Toxicity in NOD/SCID mouse xenografted with human MOLM-13 cells assessed as abnormal changes in spleen at 5 to 10 mg/kg, ip daily for 2 weeks by hematoxylin-eosin staining based histological analysis; assay type: organism-based; conditions: in vivo, 336 h, dose 5-10 mg/kg
[32] = Cmax in Sprague Dawley rat at 2 mg/kg, iv measured after 24 hrs; assay type: ADME, organism-based; set-up: route intravenous, time 24 hrs, dose 2 mg/kg; conditions: in vivo
[33] = system: MOLM-13; assay: Downregulation of c-myc levels in human MOLM-13 cells at 1 to 2 uM incubated for 12 hrs by western blot analysis; assay type: functional, cell-based; conditions: dose 1-2 µM
[34] = Oral bioavailability in Sprague Dawley rat at 10 mg/kg measured after 24 hrs; assay type: ADME, organism-based; conditions: in vivo
[35] = biological target: MAP kinase-interacting serine/threonine-protein kinase 1/2 (Homo sapiens) (UniProt Q9HBH9+Q9BUB5); assay: Inhibition of MNK1/MNK2 in human MOLM-13 cells assessed as reduction in eIF4E phosphorylation at 1 to 2 uM incubated for 12 hrs by western blot analysis; assay type: cell-based; conditions: dose 1-2 µM
[36] = biological target: T2, MAP kinase-interacting serine/threonine-protein kinase 2; assay: Inhibition of wild type human partial length MKN2 (G63 to S388 residues) expressed in mammalian expression system at 1 uM by Kinomescan method relative to control
[37] = Tmax in Sprague Dawley rat at 2 mg/kg, iv measured after 24 hrs; assay type: ADME, organism-based; conditions: in vivo

## CC(C)Oc1cc(F)ccc1Nc1ncnc2ccc(-c3ccc(C(=O)N4CCNCC4)cc3)nc12
[1]
  Activity: 44.38%
[2]
  IC50: 1.97 µM
[3]
  Activity: 61.5%
[4]
  half-life: 4.4 h
[5]
  Activity: Non-Toxic
[6]
  inhibition in vivo at 5 mg/kg: 41.2%
[7]
  Activity: 61.13%
[8]
  AUC(0-t) at 24 h: 1660 ng·h/mL
[9]
  Activity: Active
[10]
  Tmax: 8 h
[11]
  Activity: 0.11%
[12]
  IC50: > 10 µM
[13]
  inhibition: 60%
[14]
  AUC(0-inf): 1680 ng·h/mL
[15]
  AUC(0-t) at 24 h: 1610 ng·h/mL
[16]
  concentration at 24 h: 765 ng/mL
[17]
  Activity: Active
[18]
  Activity: 11.81%
[19]
  inhibition: Active
[20]
  Activity: 32.41%
[21]
  Activity: Active
[22]
  half-life: 3.4 h
[23]
  AUC(0-inf): 1720 ng·h/mL
[24]
  inhibition: 96%
[25]
  Activity: Active
[26]
  Activity: Active
[27]
  IC50: 7.49 µM
[28]
  IC50: 0.007 µM
[29]
  inhibition in vivo at 10 mg/kg: 57.6%
[30]
  Activity: 0.73%
[31]
  Activity: Non-Toxic
[32]
  Cmax: 652 ng/mL
[33]
  Activity: Active
[34]
  bioavailability: 35.5%
[35]
  inhibition: Active
[36]
  inhibition: 100%
[37]
  Tmax: 4.98 min
